The values that follow come from patent publication US12390435B2, “Electrophiles and electrophile pro-drugs as RAD51 inhibitors” (University of Pittsburgh—Of the Commonwealth System of …, priority 2018, dated 2025).

Like-named read-outs stand apart in the source and are kept apart here.

Data set [1] concerns NHEJ (EJ5-GFP, U2OS cells). Briefly: EJ5-GFP NHEJ reporter assay in U2OS cells. The following applies: 5 μM, 48 h flow cytometry or 68 h live-cell microscopy. It is filed as cell-based. As for the experimental part: (§1) Measurements of NHEJ, HR, Alt-EJ and SSA assays were performed as previously described. HR activity was measured by counting GFP-positive cells by flow cytometry at the MWRI flow cytometry core using a BD LSRII (BD Biosciences). RAD51 overexpressing cells were generated by stable transfection of pLVX RAD51 IRES Neo and selection with geneticin (Invitrogen).
U2OS cells were prepared as above, but 5 h following compound treatment, cells were transferred into the Incucyte Zoom (Essen) live-cell imaging automated fluorescence microscope at 37° C. with 5% CO2. Cell confluence and green object count per mm2 were determined using Incucyte Zoom software. […]
NO2-OA-dependent effects on HR DNA repair were further investigated by utilizing a DRGFP reporter assay. This analysis quantifies intracellular recombination of an integrated cDNA cassette of two tandem non-fluorescent GFP constructs following introduction of an I-SceI cleavage to the system by measuring the fluorescent GFP protein that is produced following successful recombination. […] A novel strategy was used to measure the kinetics of changes in HR in live cells by using automated fluorescence microscopy to track the emergence of GFP positive cells over time in monolayers, as opposed to making static measurements of detached cells using flow cytometry. […]

For another data set, the target named is T1, RAD51 and ABL core (Homo sapiens, UniProt Q06609).
T1 construct: His; made in house; host or cells: E. coli BL21(DE3)pLysS
Briefly: In vitro RAD51-ABL binding assay. The format is biochemical. Particulars: purified proteins, 0, 100 or 500 nM, 1 h. As for the experimental part:
FIGS. 3A-3I. […] FIG. 3A. […] FIG. 3B. […] FIG. 3C. […] Three independent experiments were quantified and analyzed by one-way ANOVA * p<0.05. FIG. 3D. […] FIG. 3E. […] FIG. 3F. […] Purified RAD51 and ABL core proteins were incubated with OA-NO2 at 0, 100 or 500 nM for 1 h and ABL was precipitated. The amount of bound RAD51 was detected by immunoblot. FIG. 3G. […] RAD51 interactions with ABL and phosphorylated RAD51 Y315 were probed by IP and immunoblot. FIG. 3H. […] Cells were incubated with biotinylated NO2-OA and then lysates were precipitated with streptavidin coated agarose and detected by immunoblot. FIG. 3I.
Recombinant His-tagged RAD51 in the pET21a vector were transformed into E. coli BL21(DE3)pLysS cells (EMD Millipore) and purified.

Another data set has as its system MDA-MB-468 cells. Nature of the data set: Cell growth assay (FluoReporter dsDNA). The following applies: Homo sapiens, 48 hr, 0-15 μM. The format is cell-based. As for the experimental part:
(§2) Cells were plated at a cell density of 5000 cells per well in 96-well plates. […] Cells were counted using the FluoReporter dsDNA quantitation kit (Molecular Probes) according to the manufacturer's instructions. Fluorescence was measured using a SpectraMax M2 plate reader (Molecular Devices). […] Three individual experiments were done (n=5/each), and statistical comparison between two cell lines across doses was determined by two-way analysis of variance followed by Tukey post-test.

The subject of another data set is MCF-10A cells. Nature of the data set: Cell growth assay (FluoReporter dsDNA). It is filed as cell-based. Particulars: for IC50: Homo sapiens, MCF-10A. As for the experimental part: as §2
The next data set relates to MDA-MB-231 cells. Nature of the data set: Cell growth assay (FluoReporter dsDNA). Particulars: Homo sapiens, MDA-MB-231; 48 hr, 0-15 μM. The format is cell-based. As for the experimental part: as §2
The subject of a further data set is MCF7 cells. Nature of the data set: Cell growth assay (FluoReporter dsDNA). The format is cell-based. The following applies: Homo sapiens, 48 hr, 0-15 μM. As for the experimental part: as §2
For data set [2], the system named is MDA-MB-231 xenograft tumor. Nature of the data set: MDA-MB-231 xenograft tumor growth, 7.5 mg/kg/day oral gavage. It is filed as in vivo, mice. As for the experimental part:
MDA-MB-231 cells were injected into the fourth inguinal mammary fat pad of 6-week-old female athymic nude mice.

Data set [3] deals with single strand annealing (SSA). Nature of the data set: GFP reporter assay for single strand annealing. The format is cell-based. Particulars: 5 μM, 48 h. As for the experimental part: FIG. 13B is GFP-reporter assays examining effects of OA-NO2 on different DNA DSB repair pathways described in FIG. 14A. U2OS cells containing the GFP-reporter construct DR-GFP were transfected with an I-SceI plasmid and treated with vehicle (gray), 5 μM OA (green) or 5 μM OA-NO2 (red). The number of GFP positive cells were detected by flow cytometry at 48 h. GFP-reporter measuring NHEJ: n=3, SSA: n=3; HDR: n=3; Alt-EJ: n=1.
as §1

T1 sequence (Q06609 whole entry): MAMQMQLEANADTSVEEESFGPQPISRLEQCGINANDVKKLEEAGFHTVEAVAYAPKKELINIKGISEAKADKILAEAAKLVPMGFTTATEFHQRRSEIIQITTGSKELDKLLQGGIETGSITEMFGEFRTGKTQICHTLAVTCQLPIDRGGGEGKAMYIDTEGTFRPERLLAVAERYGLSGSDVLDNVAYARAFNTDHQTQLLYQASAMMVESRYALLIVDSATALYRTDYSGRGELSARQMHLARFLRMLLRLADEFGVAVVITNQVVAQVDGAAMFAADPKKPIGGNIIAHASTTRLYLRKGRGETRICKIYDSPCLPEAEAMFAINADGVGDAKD

With `CCCCCCCCC(=CCCCCCCCC(=O)O)[N+](=O)[O-]` [NO2-OA, 10-nitro-octadec-9-enoic acid], the “effect on NHEJ (GFP positive cells)” value in data set [1] was “no effect”. Also, the “RAD51-ABL core complex formation” value on RAD51 and ABL core is on record as “abolished”. The IC50 in the data set on MDA-MB-468 cells came to 1.6 ± 0.11 µM; with MCF-10A cells (read-out: IC50 cell growth, only NO2-OA treatment, probenecid study, no probenecid, 0-25 μM 48 hr), 14.2 ± 1.05 µM; in the data set with MCF-10A cells (48 hr, 0-15 μM, read-out: IC50 cell growth), 7.7 ± 1.93 µM; in the data set on MDA-MB-231 cells, 2.7 ± 0.11 µM; in the data set on MCF7 cells, 11.6 ± 3.59 µM. The “decrease of IC50 by probenecid” value in the data set on MCF-10A cells (probenecid pretreated versus only NO2-OA) turned out to be 2 fold. In addition, the xenograft tumor growth entry in data set [2] (7.5 mg/kg/day oral gavage, 27 days post-treatment, versus vehicle and NO2-SA) is on record as “significantly reduced tumor growth”. Besides, the “body weight during treatment” value in data set [2] (7.5 mg/kg/day, 4 weeks) is “no weight loss”. Besides, the overt toxicity result in data set [2] (7.5 mg/kg/day, 4 weeks) is recorded as “no overt toxic effects”. Besides, the “tumor NO2-OA levels” value in data set [2] (oral administration) is given as “increased murine tumor NO2-OA levels”. Also, the “effect on single strand annealing” value in data set [3] was “also inhibits single strand annealing”.
